US7723376B2, “2-oxo-heterocyclic compounds and pharmaceutical compositions” (Korea Research Institute of Bioscience and Biotechnology, priority 2003, dated 2010)

Tested on: histone deacetylase (HDAC)
Test: HDAC Fluorescent Activity Assay/Drug Discovery Kit (Biomol) with nuclear extracts of HeLa cell as HDAC source
Format: biochemical
Conditions: compounds 0.01 to 10 μM, 25° C., 20 minutes, fluorescence
Procedure: Fluorogenic Histone Deacetylase Lysyl Substrate was used as substrate for HDAC and the test is based on the fact that the removal of acetyl group by HDAC activity causes the substrate to occur emmition wavelength in the ranging from 360 nm to 460 nm.
Various concentrations of the compounds of the present invention ranging from 0.01 to 10 μM were reacted with HDAC enzyme at 25° C. for 20 minutes and equal volume of developer was added thereto. The fluorescence signal was detected at the wavelength in the range 350 to 460 nm using by fluorescence spectrometer.

| SMILES | HDAC inhibition |
| --- | --- |
| O=C(CCC1=CCN(CCCc2ccccc2)C1=O)NO [Example 4, N-hydroxy-3-[2-oxo-1-(3-phenyl-propyl)-2,5-dihydro-1H-pyrrol-3-yl]-propionamide] | AAA |

Tested on: PC-3 cells
Test: Tumor cell growth inhibition, sulforhodamine B (SRB) staining
Format: cell-based
Conditions: PC-3 human prostatic carcinoma cells, 48 hrs, absorbance 540 nm, adriamycin as positive control
Procedure: PC-3 cells (ATCC, US), human prostatic carcinoma cell line, were cultured in RMPI 1640 supplemented with 10% fetal bovine serum.
Appropriate concentrations of cells (5×10^4 cells/ml) cultured in RMPI 1640 supplemented with 5% fetal bovine serum were poured into 96-well plate and incubated at 37° C. in 5% CO2 condition. The day after the incubation, PC-3 cells were fixed on Time zero (T0) plate by adding 50 μl/well of 50% trichloroacetic acid and the cell concentration was set to zero point by fixing the cells. In the cells treated with test samples, 50% TCA was added to each wells in 50 ul/well after 48 hrs to fix the cells. The final concentration of adding test compounds were 0.01, 0.03, 0.1, 0.3, 1 μg/ml respectively. Then, each fixed plate was washed, dried and 100 μl/well of 0.4% reaction solution containing sulforhodamine B (SRB) reagent dissolved in 0.1% acetic acid was added thereto to stain the cells. 30 minutes later, the cell was washed with 0.1% acetic acid, dried at room temperature, and 10 mM of TRIS base (pH 10.5) was added thereto to dissolve the staining agent. Finally, the absorbance detected at 540 nm was measured and the value was conversed into percentage comparing with that of control group. IC50 (μg/ml), the concentration of the group required to inhibit the cancer cell growth by 50%, was calculated from the data (AA: IC50's<1, A: IC50's<5, B: IC50's<10 and C: IC50's>10). Also, the inhibiting activity of cell growth was expressed as various symbols in accordance with the potency of examples e.g., AA: closely equivalent (1˜2 times), A: slightly weaker (3˜5 times), B: weaker (5˜10 times), C: very weaker (more than 10 times) than that of adriamycin used as a positive control group.

| IC50 [µg/mL] | SMILES |
| --- | --- |
| < 5 | O=C(CCC1=CCN(CCCc2ccccc2)C1=O)NO [Example 4, N-hydroxy-3-[2-oxo-1-(3-phenyl-propyl)-2,5-dihydro-1H-pyrrol-3-yl]-propionamide] |
| > 10 | O=C(CCC1=CCCN(Cc2ccccc2)C1=O)Nc1ccccn1 [Example 69, 3-(1-benzyl-2-oxo-1,2,5,6-tetrahydro-pyridin-3-yl)-N-pyridin-2-yl-propionamide] |
| < 5 | O=C(CCC1=CCN(CCc2ccccc2[N+](=O)[O-])C1=O)NO [Example 31, N-hydroxy-3-{1-[2-(2-nitro-phenyl)-ethyl]-2-oxo-2,5-dihydro-1H-pyrrol-3-yl}-propionamide] |
| < 10 | Cc1ccccc1CCCN1CC=C(CCC(=O)NO)C1=O [Example 41, N-hydroxy-3-[2-oxo-1-(3-o-tolyl-propyl)-2,5-dihydro-1H-pyrrol-3-yl]-propionamide] |
| > 10 | CS(=O)(=O)N(c1ccc(CN2CCC=C(CCC(=O)NO)C2=O)cc1)S(C)(=O)=O [Example 76, N-hydroxy-3-[1-(4-dimethylsulfonylamino-benzyl)-2-oxo-1,2,5,6-tetrahydro-pyridin-3-yl]-propionamide] |
| > 10 | O=C(O)CCC1=CCCN(Cc2ccc([N+](=O)[O-])cc2)C1=O [Example 65, 3-[1-(4-nitro-benzyl)-2-oxo-1,2,5,6-tetrahydro-pyridin-3-yl)-propionic acid] |
| < 10 | O=C(CCC1=CCN(CCCc2ccc(Br)cc2)C1=O)NO [Example 44, 3-{1-[3-(4-bromo-phenyl)-propyl]-2-oxo-2,5-dihydro-1H-pyrrol-3-yl]-N-hydroxy-propionamide] |
| > 10 | O=C(CC1=CCN(CCc2ccccc2)C1=O)NO [Example 22, N-hydroxy-2-(2-oxo-1-phenethyl-2,5-dihydro-1H-pyrrol-3-yl)-acetamide] |
| < 1 | COc1ccc(CN2CCC=C(CCC(=O)NO)C2=O)c(OC)c1 [Example 57, 3-[1-(2,4-dimethoxybenzyl)-2-oxo-1,2,5,6-tetrahydro-pyridin-3-yl]-N-hydroxy-propionamide] |
| > 10 | O=C(CCC1=CCCCN(Cc2ccccc2)C1=O)NO [Example 105, 3-(1-Benzyl-2-oxo-2,5,6,7-tetrahydro-1H-azepin-3-yl)-N-hydroxy-propionamide] |
| < 1 | O=C(CCC1=CCN(CCCc2ccc(-c3ccccc3)cc2)C1=O)NO [Example 55, 3-[1-(3-biphenyl-4-yl-propyl)-2-oxo-2,5-dihydro-1H-pyrrol-3-yl]-N-hydroxy-propionamide] |
| < 1 | O=C(CCC1=CCN(Cc2ccc(Br)cc2)C1=O)NO [Example 12, 3-[1-(4-bromo-benzyl)-2-oxo-2,5-dihydro-1H-pyrrol-3-yl]-N-hydroxy-propionamide] |
| > 10 | COc1ccc(CN2CCC(CC(=O)NO)C2=O)c(OC)c1 (stereo not drawn) [Example 26, 2-[1-(2,4-dimethoxy-benzyl)-2-oxo-pyrrolidin-3-yl]-N-hydroxy-acetamide] |
| < 5 | O=C(CCC1=CCN(CCc2cccc([N+](=O)[O-])c2)C1=O)NO [Example 32, N-hydroxy-3-{1-[2-(3-nitro-phenyl)-ethyl]-2-oxo-2,5-dihydro-1H-pyrrol-3-yl}-propionamide] |
| > 10 | O=C(CCC1CCCN(CCc2ccccc2)C1=O)NO (stereo not drawn) [Example 81, N-hydroxy-3-(2-oxo-1-phenethyl-piperidine-3-yl)-propionamide] |
| < 5 | Cc1ccc(CN2CC=C(CCC(=O)NO)C2=O)cc1 [Example 8, N-hydroxy-3-[1-(4-methyl-benzyl)-2-oxo-2,5-dihydro-1H-pyrrol-3-yl]-propionamide] |
| < 5 | COc1cccc(CCN2CC=C(CCC(=O)NO)C2=O)c1 [Example 37, N-hydroxy-3-{1-[2-(3-methoxy-phenyl)-ethyl]-2-oxo-2,5-dihydro-1H-pyrrol-3-yl}-propionamide] |
